Data as given in patent US20150119373A1, “NOVEL BETULINIC ACID DERIVATIVES AS HIV INHIBITORS” (HETERO RESEARCH FOUNDATION, priority 2012, published 2015).
Read-outs that look alike come from different tables or passages of the source.

Legend:
[1] = Single dose oral pharmacokinetic study in mice; format: in vivo; settings: for Cmax / Tmax / AUC(0-t) / AUC(0-inf): mouse, plasma
Method: The test item was administered through oral route to animals (rat/mice) at 30 mg/kg dose in a suitable vehicle at 10 ml/kg dose volume. Blood samples (˜50 uL at each time point) were collected from retro-orbital plexus using K3 EDTA as anticoagulant in eppendorf tubes at defined time intervals under light ether anesthesia. The samples were centrifuged at 3500×g to separate plasma and stored at −80° C. until analysis.
Sample analysis: Test samples were analyzed using LC-MS-MS after developing fit-for-purpose method for each of test compound.

[2] = Cyto-toxicity assay (MTT) in MT2 cells without virus; format: cell-based; settings: human
Method: For cyto-toxicity assay the same amount of MT2 cells as in antiviral assay without virus was added to the 96 well plates. The cyto-toxicity was measured using MTT reagent in parallel with p24 estimation. The percent viability is calculated in comparison with vehicle control.

HIV-1 strain 92HT599 = assay: Antiviral activity: p24 estimation in MT2 cells infected with HIV-1 strain 92HT599; format: cell-based; settings: Human immunodeficiency virus 1, MT2 cells, HIV-1 92HT599, ~96 hours, p24; for inhibition at 0.1 µM: 100 nM, read-out: Antiviral activity % inhibition 100 nM; for inhibition at 1 µM: 1000 nM, read-out: Antiviral activity % inhibition 1000 nM
Method: MT2 cells were infected with HIV-1 strain 92HT599 (10 TCID 50/30000 cells). The infected cells were plated at the concentration of […] cells per well in 96 well plate. Test compound was added to the micro plate in defined format with the final concentration of DMSO (vehicle) is not more than 1%. Incubation was carried out in CO2 incubator for ˜96 hours for viral infection. At the end of incubation period an aliquot from each well was taken for p24 estimation. The quantitation of p24 is an index for antiviral activity of the compound. Percent inhibition was calculated with reference to control values (vehicle controls).
p-24 estimation was carried out using Advance biosciences kit as per the procedure detailed by supplier.

[3] = Mice oral PK @30 mg/kg (Table 5)
[4] = Oral PK @ 30 mg/ kg dose in mice (Table 6)
[5] = Oral PK @ 30 mg/ kg dose in mice (Table 6), read-out: AUCt

Row | SMILES | Cmax [1, 3] | Tmax [1, 3] | AUC(0-t) ([1]; Mice oral PK @30 mg/kg (Table 5), read-out: AUC 0-t) | viability at 100 nM [2] | viability at 1000 nM [2] | inhibition at 0.1 µM (HIV-1 strain 92HT599) | inhibition at 1 µM (HIV-1 strain 92HT599) | Tlast [1, 4] | AUC(0-inf) [1, 4] | Cmax [1, 4] | Tmax [1, 4] | AUC(0-t) [1, 5]
1 | C=C(C)[C@@H]1CC[C@]2(C(=O)N[C@@H]3C[C@H](C(=O)N4CCCCC4)C3(C)C)CC[C@]3(C)[C@H](CC[C@@H]4[C@@]5(C)CC[C@H](OC(=O)[C@H]6[C@@H](CC(=O)O)C6(C)C)C(C)(C)[C@@H]5CC[C@]43C)[C@@H]12 [Example 18, 2-((1R,3S)-3-(((1R,3aS,5aR,5bR,7aR,9S,11aR,11bR,13aR,13bR)-3a-((1R,3S)-2,2-dimethyl-3-(piperidine-1-carbonyl)cyclobutylcarbamoyl)-5a,5b,8,8,11a-pentamethyl-1-(prop-1-en-2-yl)icosahydro-1H-cyclopenta[a]chrysen-9-yloxy)carbonyl)-2,2-dimethylcyclopropyl)acetic acid] | 4230 ng/mL | 2.25 h | 36.6 µg·h/mL | 82% | 77% | 100% | 100% |  |  |  |  | 
2 | C=C(C)[C@@H]1CC[C@]2(C(=O)N[C@@H]3C[C@H](c4nnc(C)o4)C3(C)C)CC[C@]3(C)[C@H](CC[C@@H]4[C@@]5(C)CC[C@H](OC(=O)[C@H]6C[C@@H](C(=O)O)C6(C)C)C(C)(C)[C@@H]5CC[C@]43C)[C@@H]12 [Example 21, (1R,3S)-3-(((1R,3aS,5aR,5bR,7aR,9S,11aR,11bR,13aR,13bR)-3a-((1R,3S)-2,2-dimethyl-3-(5-methyl-1,3,4-oxadiazol-2-yl)cyclobutylcarbamoyl)-5a,5b,8,8,11a-pentamethyl-1-(prop-1-en-2-yl)icosahydro-1H-cyclopenta[a]chrysen-9-yloxy)carbonyl)-2,2-dimethylcyclobutane carboxylicacid] |  |  |  | 94% | 96% | 100% | 100% | 24 h | 185 µg·h/mL | 5900 ng/mL | 7 h | 95.5 µg·h/mL
3 | [2H]C([2H])([2H])C(CC(=O)O[C@H]1CC[C@]2(C)[C@H]3CC[C@@H]4[C@H]5[C@H](C6(C)CC6)CC[C@]5(C(=O)N[C@@H]5C[C@H](C(=O)N6CCCCC6)C5(C)C)CC[C@@]4(C)[C@]3(C)CC[C@H]2C1(C)C)(C(=O)O)C([2H])([2H])[2H] [Example 22, 4-(((1R,3aS,5aR,5bR,7aR,9S,11aR,11bR,13aR,13bR)-3a-(((1R,3S)-2,2-dimethyl-3-(piperidine-1-carbonyl)cyclobutyl)carbamoyl)-5a,5b,8,8,11a-pentamethyl-1-(1-methylcyclopropyl)icosahydro-1H-cyclopenta[a]chrysen-9-yl)oxy)-2,2-bis(methyl-d3)-4-oxobutanoic acid] |  |  |  | 100% | 87% | 100% | 100% | 24 h | 79 µg·h/mL | 10200 ng/mL | 1.8 h | 63.9 µg·h/mL
4 | CC1([C@@H]2CC[C@]3(C(=O)N[C@@H]4C[C@H](C(=O)N5CCCCC5)C4(C)C)CC[C@]4(C)[C@H](CC[C@@H]5[C@@]6(C)CC[C@H](OC(=O)[C@H]7C[C@@H](C(=O)O)C7(C)C)C(C)(C)[C@@H]6CC[C@]54C)[C@@H]23)CC1 [Example 23, (1R,3S)-3-((((1R,3aS,5aR,5bR,7aR,9S,11aR,11bR,13aR,13bR)-3a-(((1R,3S)-2,2-dimethyl-3-(piperidine-1-carbonyl)cyclobutyl)carbamoyl)-5a,5b,8,8,11a-pentamethyl-1-(1-methylcyclopropyl)icosahydro-1H-cyclopenta[a]chrysen-9-yl)oxy)carbonyl)-2,2-dimethylcyclobutane-1-carboxylic acid] |  |  |  | 100% | 93% | 100% | 100% | 48 h | 628 µg·h/mL | 11000 ng/mL | 4.5 h | 324 µg·h/mL
5 | [2H]C([2H])([2H])C(CC(=O)O[C@H]1CC[C@]2(C)[C@H]3CC[C@@H]4[C@H]5[C@H](C(=C)C)CC[C@]5(C(=O)N[C@@H]5C[C@H](C(=O)N6CCCCC6)C5(C)C)CC[C@@]4(C)[C@]3(C)CC[C@H]2C1(C)C)(C(=O)O)C([2H])([2H])[2H] [Example 24, 4-(((1R,3aS,5aR,5bR,7aR,9S,11aR,11bR,13aR,13bR)-3a-(((1R,3S)-2,2-dimethyl-3-(piperidine-1-carbonyl)cyclobutyl)carbamoyl)-5a,5b,8,8,11a-pentamethyl-1-(prop-1-en-2-yl)icosahydro-1H-cyclopenta[a]chrysen-9-yl)oxy)-2,2-bis(methyl-d3)-4-oxobutanoic acid] |  |  |  | 83% | 99% | 100% | 100% | 24 h | 123 µg·h/mL | 9100 ng/mL | 2 h | 70 µg·h/mL
6 | [2H]C([2H])([2H])C(CC(=O)O[C@H]1CC[C@]2(C)[C@H]3CC[C@@H]4[C@H]5[C@H](C(=C)C)CC[C@]5(C(=O)N5CCN(CC)CC5)CC[C@@]4(C)[C@]3(C)CC[C@H]2C1(C)C)(C(=O)O)C([2H])([2H])[2H] [Example 25, 4-(((1R,3aS,5aR,5bR,7aR,9S,11aR,11bR,13aR,13bR)-3a-(4-ethylpiperazine-1-carbonyl)-5a,5b,8,8,11a-pentamethyl-1-(prop-1-en-2-yl)icosahydro-1H-cyclopenta[a]chrysen-9-yl)oxy)-2,2-bis(methyl-d3)-4-oxobutanoic acid] |  |  |  | 100% | 84% | 100% | 100% | 48 h | 122 µg·h/mL | 6200 ng/mL | 4.5 h | 108 µg·h/mL
7 | CCN1CCN(C(=O)[C@]23CC[C@@H](C4(C)CC4)[C@@H]2[C@H]2CC[C@@H]4[C@@]5(C)CC[C@H](OC(=O)CC(C)(C)CC(=O)O)C(C)(C)[C@@H]5CC[C@@]4(C)[C@]2(C)CC3)CC1 [Example 26, 5-(((1R,3aS,5aR,5bR,7aR,9S,11aR,11bR,13aR,13bR)-3a-(4-ethylpiperazine-1-carbonyl)-5a,5b,8,8,8,11a-pentamethyl-1-(1-methylcyclopropyl)icosahydro-1H-cyclopenta[a]chrysen-9-yl)oxy)-3,3-dimethyl-5-oxopentanoic acid] |  |  |  | 100% | 99% | 94% | 99% | 24 h | 151 µg·h/mL | 6900 ng/mL | 3.5 h | 99.4 µg·h/mL
8 | CC(C)(CC(=O)O[C@H]1CC[C@]2(C)[C@H]3CC[C@@H]4[C@H]5[C@H](C6(C)CC6)CC[C@]5(C(=O)N5CCOCC5)CC[C@@]4(C)[C@]3(C)CC[C@H]2C1(C)C)C(=O)O [Example 27, 2,2-dimethyl-4-oxo-4-(((1R,3aS,5aR,5bR,7aR,9S,11aR,1bR,13aR,13bR)-5a,5b,8,8,11a-pentamethyl-1-(1-methylcyclopropyl)-3a-(morpholine-4-carbonyl)icosahydro-1H-cyclopenta[a]chrysen-9-yl)oxy)butanoic acid] |  |  |  | 100% | 94% | 94% | 88% | 48 h | 106 µg·h/mL | 7000 ng/mL | 3.5 h | 101 µg·h/mL
9 | CC1([C@@H]2CC[C@]3(C(=O)N4CCOCC4)CC[C@]4(C)[C@H](CC[C@@H]5[C@@]6(C)CC[C@H](OC(=O)[C@H]7C[C@@H](C(=O)O)C7(C)C)C(C)(C)[C@@H]6CC[C@]54C)[C@@H]23)CC1 [Example 28, (1R,3S)-2,2-dimethyl-3-((((1R,3aS,5aR,5bR,7aR,9S,11aR,11bR,13aR,13bR)-5a,5b,8,8,11a-pentamethyl-1-(1-methylcyclopropyl)-3a-(morpholine-4-carbonyl)icosahydro-1H-cyclopenta[a]chrysen-9-yl)oxy)carbonyl)cyclobutane-1-carboxylic acid] |  |  |  | 81% | 78% | 98% | 99% | 48 h | 398 µg·h/mL | 4500 ng/mL | 16 h | 171 µg·h/mL
